Target: T1, cynomolgus BK1-receptor (Macaca fascicularis, UniProt Q3BCU0)
T1 construct: expressed in transfected cells; host or cells: CHO cells (homogenate)
T1 sequence (Q3BCU0 1-352): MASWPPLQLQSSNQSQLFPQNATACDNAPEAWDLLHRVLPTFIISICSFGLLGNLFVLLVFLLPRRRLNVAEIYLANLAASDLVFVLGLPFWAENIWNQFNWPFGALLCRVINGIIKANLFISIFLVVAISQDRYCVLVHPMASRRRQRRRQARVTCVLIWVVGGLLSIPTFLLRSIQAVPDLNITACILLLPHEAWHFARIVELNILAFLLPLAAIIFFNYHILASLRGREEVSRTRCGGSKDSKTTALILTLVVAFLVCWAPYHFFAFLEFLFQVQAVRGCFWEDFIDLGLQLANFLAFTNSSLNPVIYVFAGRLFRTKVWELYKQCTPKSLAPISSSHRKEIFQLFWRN
Assay: cynoBK1-receptor binding assay
Conditions: CHO cells expressing cynomolgus BK1-receptor, radioligand kallidine (DesArg10,Leu9)
Experimental: Description of the Method of Binding the cynoBK1-Receptor
CHO cells that express the cynomolgus BK1-receptor are cultivated in “HAM'S F-12 Medium”. The medium is removed from confluent cultures, the cells are washed with PBS buffer, scraped off or detached using Versene and isolated by centrifuging. Then the cells are homogenised in suspension, the homogenate is centrifuged and resuspended. After the protein content has been determined 200 μl of the homogenate (50 to 250 μg protein/assay) are incubated for 60-180 minutes at ambient temperature with 0.5 to 5.0 nM kallidine (DesArg10,Leu9), [3,4-Prolyl-3,43H(N)] and increasing concentrations of the test substance in a total volume of 250 μl. The incubation is stopped by rapid filtration through GF/B glass fibre filters that have been pre-treated with polyethyleneimine (0.3%). The radioactivity bound to the protein is measured with a TopCount NXT. The radioactivity bound in the presence of 1.0 μM kallidine (DesArg10) is defined as non-specific binding. The concentration binding curve may be analysed using computer-aided non-linear curve fitting to determine the corresponding Ki value for the test substance.
Test results of the cynoBK1-receptor binding assay: […]

Row | Structure (SMILES) | Ki [nM] | inhibition at 10 µM (at 10 μgmol/L) [%] | % inhibition at 10 μgmol/L (at 10 μgmol/L) [%]
1 | COc1ncc(C(=O)NC2(C(=O)NCc3ncc(Nc4c(F)cccc4C(F)(F)F)cc3F)CC2)cn1 [(129)] | 11 | 107 | –
2 | O=C(NC1(C(=O)NCc2ncc(Nc3c(F)cccc3C(F)(F)F)cc2F)CC1)c1ccnc(O)c1 [(130)] | 101 | 101 | –
3 | Cc1cncc(C(=O)NC2(C(=O)NCc3ncc(Nc4c(F)cccc4C(F)(F)F)cc3F)CC2)c1 [(131)] | 33 | 105 | –
4 | Cn1ccc(C(=O)NC2(C(=O)NCc3ncc(Nc4c(F)cccc4C(F)(F)F)cc3F)CC2)cc1=O [(132)] | 180 | 98 | –
5 | CNc1ncc(C(=O)NC2(C(=O)NCc3ncc(Nc4c(F)cccc4C(F)(F)F)cc3F)CC2)cn1 [(133)] | – | 101 | –
6 | Cc1ncc(C(=O)NC2(C(=O)NCc3ncc(Nc4c(F)cccc4C(F)(F)F)cc3F)CC2)cn1 [(134)] | 4.7 | 101 | –
7 | O=C(NC1(C(=O)NCc2ncc(Nc3c(F)cccc3C(F)(F)F)cc2F)CC1)c1cncs1 [(135)] | 15 | 106 | –
8 | O=C(NC1(C(=O)NCc2ncc(Nc3c(F)cccc3C(F)(F)F)cc2F)CC1)c1cccc(O)n1 [(136)] | 42 | 104 | –
9 | COc1ncc(C(=O)NC2(C(=O)NCc3ccc(Nc4ccc(Br)cc4C(F)(F)F)cn3)CC2)cn1 [(138)] | 6.7 | 107 | –
10 | Cc1ncc(C(=O)NC2(C(=O)NCc3ccc(Nc4ccc(Br)cc4C(F)(F)F)cn3)CC2)cn1 [(139)] | 2.8 | 107 | –
11 | O=C(NC1(C(=O)NCc2ccc(Nc3ccc(Br)cc3C(F)(F)F)cn2)CC1)c1cccc(O)n1 [(140)] | 14 | 106 | –
12 | O=C(NC1(C(=O)NCc2ccc(Nc3ccc(Br)cc3C(F)(F)F)cn2)CC1)c1cncc(O)c1 [(141)] | 7.6 | 100 | –
13 | Nc1cncc(C(=O)NC2(C(=O)NCc3ccc(Nc4ccc(F)cc4C(F)(F)F)cn3)CC2)c1 [(142)] | 12 | 106 | –
14 | O=C(NC1(C(=O)NCc2ccc(Nc3ccc(F)cc3C(F)(F)F)cn2)CC1)c1cnc2[nH]cnc2c1 [(143)] | 12 | 106 | –
15 | Nc1cncc(C(=O)NC2(C(=O)NCc3ccc(Nc4ccc(F)cc4C(F)(F)F)cn3)CC2)n1 [(144)] | 126 | 97 | –
16 | CNc1ncc(C(=O)NC2(C(=O)NCc3ccc(Nc4ccc(Cl)cc4C(F)(F)F)cn3)CC2)cn1 [(145)] | 2.8 | 99 | –
17 | COc1ncc(C(=O)NC2(C(=O)NCc3ccc(Nc4ccc(Cl)cc4C(F)(F)F)cn3)CC2)cn1 [(146)] | 7.6 | 107 | –
18 | Cc1ncc(C(=O)NC2(C(=O)NCc3ccc(Nc4ccc(Cl)cc4C(F)(F)F)cn3)CC2)cn1 [(147)] | 4.4 | 107 | –
19 | Cn1ccc(C(=O)NC2(C(=O)NCc3ccc(Nc4ccc(Cl)cc4C(F)(F)F)cn3)CC2)cc1=O [(148)] | – | 96 | –
20 | O=C(NC1(C(=O)NCc2ccc(Nc3ccc(Cl)cc3C(F)(F)F)cn2)CC1)c1cncs1 [(149)] | – | 100 | –

Row | Structure (SMILES) | Ki [nM] | inhibition at 10 µM (at 10 μgmol/L) [%] | % inhibition at 10 μgmol/L (at 10 μgmol/L) [%]
21 | Nc1cc(C(=O)NC2(C(=O)NCc3ccc(Nc4ccc(F)cc4C(F)(F)F)cn3)CC2)on1 [(150)] | 37 | 105 | –
22 | O=C(NC1(C(=O)NCc2ncc(Nc3ccc(F)cc3C(F)(F)F)cc2F)CC1)c1cncnc1 [(151)] | 1.8 | 107 | –
23 | Nc1cncc(C(=O)NC2(C(=O)NCc3ncc(Nc4ccc(F)cc4C(F)(F)F)cc3F)CC2)c1 [(152)] | 3.2 | 105 | –
24 | O=C(N[C@@]1(C(=O)NCc2ncc(Nc3ccc(F)cc3C(F)(F)F)cc2F)CCOC1)c1cncnc1 [(153)] | 9.7 | 106 | –
25 | Nc1cncc(C(=O)N[C@@]2(C(=O)NCc3ncc(Nc4c(F)cccc4C(F)(F)F)cc3F)CCOC2)c1 [(154)] | 89 | 101 | –
26 | O=C(N[C@@]1(C(=O)NCc2ccc(Nc3ccccc3C(F)(F)F)cc2)CCOC1)c1cncnc1 [(155)] | – | – | 101
27 | Nc1cncc(C(=O)N[C@@]2(C(=O)NCc3ncc(Nc4ccc(F)cc4C(F)(F)F)cc3F)CCOC2)c1 [(156)] | 8.5 | 107 | –
28 | Nc1cncc(C(=O)N[C@@]2(C(=O)NCc3ccc(Nc4ccc(F)cc4C(F)(F)F)cn3)CCOC2)c1 [(157)] | 56 | 96 | –
29 | O=C(N[C@@]1(C(=O)NCc2ncc(Nc3c(F)cccc3C(F)(F)F)cc2F)CCOC1)c1cncnc1 [(158)] | 115 | 101 | –
30 | O=C(N[C@@]1(C(=O)NCc2ccc(Nc3ccc(F)cc3C(F)(F)F)cn2)CCOC1)c1cnc2[nH]cnc2c1 [(159)] | 97 | 91 | –
31 | N#Cc1cc(F)ccc1Nc1cnc(CNC(=O)C2(NC(=O)c3cncnc3)CC2)c(F)c1 [(160)] | 17 | 106 | –
32 | N#Cc1cc(OC(F)(F)F)ccc1Nc1ccc(CNC(=O)C2(NC(=O)c3cncnc3)CC2)cc1 [(161)] | > 500 | 69 | –
33 | N#Cc1cc(Cl)ccc1Nc1ccc(CNC(=O)C2(NC(=O)c3cncnc3)CC2)cc1 [(162)] | 17 | 104 | –
34 | CC(NC(=O)[C@]1(NC(=O)c2cncnc2)CCOC1)c1ccc(Nc2ccc(Cl)cc2C(F)(F)F)cn1 (some centres unmarked) [(163)] | 288 | 87 | –
35 | CC(NC(=O)C1(NC(=O)c2cncnc2)CC1)c1ccc(Nc2ccc(Cl)cc2C(F)(F)F)cn1 (centres unmarked) [(164)] | 3.4 | 106 | –
36 | O=C(NC1(C(=O)NCc2ncc(Nc3ccc(Cl)cc3C(F)(F)F)cc2F)CC1)c1cncnc1 [(165)] | – | 101 | –
37 | O=C(NC1(C(=O)NCc2ccc(Nc3ccc(Cl)cc3Cl)cn2)CC1)c1cncnc1 [(166)] | 45 | 104 | –
38 | O=C(NC1(C(=O)NCc2ccc(Nc3ccc(Cl)cc3Br)cn2)CC1)c1cncnc1 [(167)] | 19 | 104 | –
39 | CNc1cncc(C(=O)NC2(C(=O)NCc3ccc(Nc4ccc(F)cc4C(F)(F)F)cn3)CC2)n1 [(168)] | 235 | 90 | –

More lines, now with the values ahead:

Row | Ki [nM] | inhibition at 10 µM (at 10 μgmol/L) [%] | % inhibition at 10 μgmol/L (at 10 μgmol/L) [%] | Structure (SMILES)
40 | 292 | 90 | – | Nc1ncc(C(=O)NC2(C(=O)NCc3ccc(Nc4ccc(F)cc4C(F)(F)F)cn3)CC2)o1 [(169)]
41 | 35 | 104 | – | CC(C#N)C(=O)NC1(C(=O)NCc2ccc(Nc3ccc(F)cc3C(F)(F)F)cn2)CC1 (centres unmarked) [(170)]
42 | – | 97 | – | O=C(NC1(C(=O)NCc2ccc(Nc3ccc(Br)cc3C(F)(F)F)cn2)CC1)c1ccnc(O)c1 [(171)]
43 | 9.8 | 100 | – | O=C(NC1(C(=O)NCc2ccc(Nc3ccc(Br)cc3C(F)(F)F)cn2)CC1)c1cncs1 [(172)]
44 | 2.7 | 105 | – | Nc1ccc(C(=O)NC2(C(=O)NCc3ccc(Nc4ccc(Br)cc4C(F)(F)F)cn3)CC2)cn1 [(173)]
45 | – | 99 | – | O=C(NC1(C(=O)NCc2ccc(Nc3ccc(Br)cc3C(F)(F)F)cn2)CC1)c1ccnnc1 [(174)]
46 | 63 | 96 | – | CN(C)c1ncc(C(=O)NC2(C(=O)NCc3ccc(Nc4ccc(Br)cc4C(F)(F)F)cn3)CC2)cn1 [(175)]
47 | – | 100 | – | O=C(NC1(C(=O)NCc2ccc(Nc3ccc(Br)cc3C(F)(F)F)cn2)CC1)c1cc(O)nc(O)n1 [(176)]
48 | – | 99 | – | Cn1ccc(C(=O)NC2(C(=O)NCc3ccc(Nc4ccc(Br)cc4C(F)(F)F)cn3)CC2)cc1=O [(177)]
49 | 11 | 107 | – | Nc1cncc(C(=O)NC2(C(=O)NCc3ccc(Nc4ccc(Br)cc4C(F)(F)F)cn3)CC2)c1 [(178)]
50 | – | 101 | – | O=C(NC1(C(=O)NCc2ncc(Nc3ccc(Br)cc3C(F)(F)F)cc2F)CC1)c1cncnc1 [(179)]
51 | 1.6 | 106 | – | CC(NC(=O)C1(NC(=O)c2cncnc2)CC1)c1ccc(Nc2ccc(Br)cc2C(F)(F)F)cn1 (centres unmarked) [(180)]
52 | 19 | 99 | – | Cc1ncc(C(=O)NC2(C(=O)NCc3ccc(Nc4ccc(F)cc4C#N)cc3)CC2)cn1 [(181)]
53 | 20 | 99 | – | COc1ncc(C(=O)NC2(C(=O)NCc3ccc(Nc4ccc(F)cc4C#N)cc3)CC2)cn1 [(182)]
54 | 21 | 100 | – | CNc1ncc(C(=O)NC2(C(=O)NCc3ccc(Nc4ccc(F)cc4C#N)cc3)CC2)cn1 [(183)]
55 | – | 99 | – | Nc1ncc(C(=O)NC2(C(=O)NCc3ccc(Nc4ccc(F)cc4C(F)(F)F)cn3)CC2)s1 [(184)]
56 | – | 87 | – | Nc1cc(C(=O)NC2(C(=O)NCc3ccc(Nc4ccc(F)cc4C(F)(F)F)cn3)CC2)[nH]n1 [(185)]
57 | – | 82 | – | Cc1nc(N)sc1C(=O)NC1(C(=O)NCc2ccc(Nc3ccc(F)cc3C(F)(F)F)cn2)CC1 [(186)]

From patent US20130131075A1, “NEW COMPOUNDS” (Boehringer Ingelheim International GmbH, priority 2009, published 2013)
